Assay results reported in ChEMBL document CHEMBL5463728, “Data for DCP probe BAY-6096” (2023).

What was measured:
[1] = target: GABA-A receptor; anion channel (Rattus norvegicus) (UniProt O09028+P15431+P18506+P18508+P19969+P20236+P23574+P23576+P28471+P28473+P30191+P62813+P63079+P63138+Q91ZM7+Q9ES14); details: Compound concentration 10.0 uM
[2] = target: Vasopressin V1a receptor (Homo sapiens) (UniProt P37288); details: Compound concentration 10.0 uM
[3] = target: Glucocorticoid receptor (Homo sapiens) (UniProt P04150); details: Compound concentration 10.0 uM
[4] = target: 5-hydroxytryptamine receptor 2B (Homo sapiens) (UniProt P41595); details: Compound concentration 10.0 uM
[5] = target: D(1A) dopamine receptor (Homo sapiens) (UniProt P21728); details: Compound concentration 10.0 uM
Sequence of D(1A) dopamine receptor (Homo sapiens) (P21728 whole entry): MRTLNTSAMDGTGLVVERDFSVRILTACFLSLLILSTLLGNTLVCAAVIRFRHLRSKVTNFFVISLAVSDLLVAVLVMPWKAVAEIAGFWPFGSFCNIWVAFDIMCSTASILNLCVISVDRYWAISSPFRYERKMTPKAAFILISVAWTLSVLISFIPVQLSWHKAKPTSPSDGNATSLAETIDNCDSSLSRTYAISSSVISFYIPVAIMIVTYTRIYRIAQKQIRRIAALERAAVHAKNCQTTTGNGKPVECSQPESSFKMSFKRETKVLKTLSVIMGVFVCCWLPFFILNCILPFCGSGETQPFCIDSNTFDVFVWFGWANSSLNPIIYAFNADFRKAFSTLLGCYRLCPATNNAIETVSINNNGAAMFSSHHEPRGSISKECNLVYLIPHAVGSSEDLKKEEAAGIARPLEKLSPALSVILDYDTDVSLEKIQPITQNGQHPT

[6] = target: T1, 5-hydroxytryptamine receptor 2C (Homo sapiens) (UniProt P28335); details: Compound concentration 10.0 uM
T1 sequence (whole entry): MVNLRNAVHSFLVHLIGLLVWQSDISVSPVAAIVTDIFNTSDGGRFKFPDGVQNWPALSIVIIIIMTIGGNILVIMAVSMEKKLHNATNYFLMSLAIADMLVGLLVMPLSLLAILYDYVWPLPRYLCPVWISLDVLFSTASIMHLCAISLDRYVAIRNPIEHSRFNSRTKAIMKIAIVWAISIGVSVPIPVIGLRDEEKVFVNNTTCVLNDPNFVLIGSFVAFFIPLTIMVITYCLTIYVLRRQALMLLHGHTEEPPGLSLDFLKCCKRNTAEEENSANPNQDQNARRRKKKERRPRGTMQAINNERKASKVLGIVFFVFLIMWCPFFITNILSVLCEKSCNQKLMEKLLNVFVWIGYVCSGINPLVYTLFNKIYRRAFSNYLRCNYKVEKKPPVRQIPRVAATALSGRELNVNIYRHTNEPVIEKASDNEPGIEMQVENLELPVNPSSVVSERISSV

[7] = target: T2, 5-hydroxytryptamine receptor 1A (Homo sapiens) (UniProt P08908); details: Compound concentration 10.0 uM
T2 sequence (whole entry): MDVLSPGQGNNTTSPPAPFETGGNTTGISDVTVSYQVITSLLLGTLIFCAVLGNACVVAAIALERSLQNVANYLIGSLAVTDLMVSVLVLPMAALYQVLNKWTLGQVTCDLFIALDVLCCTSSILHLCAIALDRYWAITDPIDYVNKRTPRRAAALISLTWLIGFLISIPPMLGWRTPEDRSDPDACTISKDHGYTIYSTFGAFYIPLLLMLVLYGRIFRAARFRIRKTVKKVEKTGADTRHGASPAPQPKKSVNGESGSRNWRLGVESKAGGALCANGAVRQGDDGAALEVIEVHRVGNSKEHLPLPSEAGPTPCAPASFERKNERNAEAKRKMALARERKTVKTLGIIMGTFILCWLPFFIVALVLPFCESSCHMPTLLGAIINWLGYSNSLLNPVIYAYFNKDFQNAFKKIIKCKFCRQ

[8] = target: Adenosine receptor A1 (Homo sapiens) (UniProt P30542); details: Compound concentration 10.0 uM
Sequence of Adenosine receptor A1 (Homo sapiens) (P30542 whole entry): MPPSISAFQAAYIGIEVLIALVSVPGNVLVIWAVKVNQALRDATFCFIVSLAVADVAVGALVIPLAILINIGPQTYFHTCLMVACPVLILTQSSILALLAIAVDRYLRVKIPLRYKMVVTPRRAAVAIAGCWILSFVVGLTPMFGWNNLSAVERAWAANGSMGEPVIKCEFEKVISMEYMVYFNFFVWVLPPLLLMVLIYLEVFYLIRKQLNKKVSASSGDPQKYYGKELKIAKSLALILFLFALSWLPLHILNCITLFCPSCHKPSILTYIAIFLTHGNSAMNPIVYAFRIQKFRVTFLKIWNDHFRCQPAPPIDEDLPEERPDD

[9] = target: Muscarinic acetylcholine receptor M5 (Homo sapiens) (UniProt P08912); details: Compound concentration 10.0 uM
Sequence of Muscarinic acetylcholine receptor M5 (Homo sapiens) (P08912 whole entry): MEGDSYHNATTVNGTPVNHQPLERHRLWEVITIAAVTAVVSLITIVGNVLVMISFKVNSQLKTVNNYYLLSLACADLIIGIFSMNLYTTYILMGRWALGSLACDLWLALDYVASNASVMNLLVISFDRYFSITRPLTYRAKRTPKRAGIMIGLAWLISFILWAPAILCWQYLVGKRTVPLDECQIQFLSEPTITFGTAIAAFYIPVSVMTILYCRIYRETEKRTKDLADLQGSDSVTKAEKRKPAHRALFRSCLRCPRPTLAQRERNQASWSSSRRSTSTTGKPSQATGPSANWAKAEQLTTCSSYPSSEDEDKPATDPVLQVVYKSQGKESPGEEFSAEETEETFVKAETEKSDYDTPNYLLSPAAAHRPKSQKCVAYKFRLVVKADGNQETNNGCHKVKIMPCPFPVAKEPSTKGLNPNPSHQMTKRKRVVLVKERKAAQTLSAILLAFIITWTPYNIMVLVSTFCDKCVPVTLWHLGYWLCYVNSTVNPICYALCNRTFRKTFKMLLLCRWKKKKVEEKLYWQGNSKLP

D(2) dopamine receptor = D(2) dopamine receptor (Homo sapiens, UniProt P14416); details: Compound concentration 10.0 uM
Sequence of D(2) dopamine receptor (P14416 whole entry): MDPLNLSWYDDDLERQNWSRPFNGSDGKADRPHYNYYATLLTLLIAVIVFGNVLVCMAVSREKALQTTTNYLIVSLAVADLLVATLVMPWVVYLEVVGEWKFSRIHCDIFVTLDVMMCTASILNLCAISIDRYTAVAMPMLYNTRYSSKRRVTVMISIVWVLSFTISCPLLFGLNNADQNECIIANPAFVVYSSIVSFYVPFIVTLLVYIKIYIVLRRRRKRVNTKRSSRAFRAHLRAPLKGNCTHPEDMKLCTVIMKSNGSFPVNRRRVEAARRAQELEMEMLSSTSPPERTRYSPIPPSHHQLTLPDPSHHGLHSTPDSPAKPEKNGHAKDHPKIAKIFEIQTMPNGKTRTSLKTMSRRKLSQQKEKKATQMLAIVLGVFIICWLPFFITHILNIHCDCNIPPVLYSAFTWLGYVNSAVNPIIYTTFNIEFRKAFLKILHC

[10] = target: Muscarinic acetylcholine receptor M1 (Homo sapiens) (UniProt P11229); details: Compound concentration 10.0 uM
[11] = target: Adenosine Transporter (Cavia porcellus) (UniProt H0V4R7+H0UUG1+H0V3Z5); experiment: Inhibition of Transporter, Adenosine at compound concentration of 10.0 uM in the Eurofins-Panlabs radioligand binding assay (Eurofins_assay_202000); type: protein assay; design: ligand concentration 0.5 nM, non-specific ligand with concentration 5 uM Nitrobenzylthioinosine, incubation time 30 min, incubation temperature 25 C; details: Compound concentration 10.0 uM
[12] = target: Insulin receptor (Homo sapiens) (UniProt P06213); details: Rattus norvegicus; Compound concentration 10.0 uM
[13] = target: Kappa-type opioid receptor (Homo sapiens) (UniProt P41145); details: Compound concentration 10.0 uM
Sequence of Kappa-type opioid receptor (Homo sapiens) (P41145 whole entry): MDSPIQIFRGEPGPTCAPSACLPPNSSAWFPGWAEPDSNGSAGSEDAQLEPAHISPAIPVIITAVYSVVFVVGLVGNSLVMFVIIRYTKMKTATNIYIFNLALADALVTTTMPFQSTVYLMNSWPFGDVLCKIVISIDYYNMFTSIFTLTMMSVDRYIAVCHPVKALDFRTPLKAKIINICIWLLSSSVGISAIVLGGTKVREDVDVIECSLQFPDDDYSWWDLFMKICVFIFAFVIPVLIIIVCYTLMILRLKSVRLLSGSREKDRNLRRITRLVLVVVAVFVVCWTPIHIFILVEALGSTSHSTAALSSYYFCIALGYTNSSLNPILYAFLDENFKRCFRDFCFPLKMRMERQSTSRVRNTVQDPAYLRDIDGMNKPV

[14] = target: Sodium-dependent serotonin transporter (Homo sapiens) (UniProt P31645); details: Compound concentration 10.0 uM
[15] = target: D(4) dopamine receptor (Homo sapiens) (UniProt P21917); details: Compound concentration 10.0 uM
Sequence of D(4) dopamine receptor (Homo sapiens) (P21917 whole entry): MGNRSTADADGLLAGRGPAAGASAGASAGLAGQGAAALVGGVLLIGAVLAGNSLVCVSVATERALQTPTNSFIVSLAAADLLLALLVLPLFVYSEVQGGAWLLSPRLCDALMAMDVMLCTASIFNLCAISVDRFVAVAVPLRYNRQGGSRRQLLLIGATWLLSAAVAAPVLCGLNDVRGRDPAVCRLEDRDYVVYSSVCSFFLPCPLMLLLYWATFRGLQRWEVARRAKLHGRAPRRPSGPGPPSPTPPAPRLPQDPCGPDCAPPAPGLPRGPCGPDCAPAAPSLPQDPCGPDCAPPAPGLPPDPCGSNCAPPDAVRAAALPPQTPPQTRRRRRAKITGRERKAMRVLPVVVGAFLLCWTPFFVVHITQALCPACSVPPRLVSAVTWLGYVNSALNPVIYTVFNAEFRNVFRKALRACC

[16] = target: Androgen receptor (Homo sapiens) (UniProt P10275); details: Compound concentration 10.0 uM
[17] = target: Beta-3 adrenergic receptor (Homo sapiens, UniProt P13945); details: Compound concentration 10.0 uM
Sequence of Beta-3 adrenergic receptor (P13945 whole entry, looked up): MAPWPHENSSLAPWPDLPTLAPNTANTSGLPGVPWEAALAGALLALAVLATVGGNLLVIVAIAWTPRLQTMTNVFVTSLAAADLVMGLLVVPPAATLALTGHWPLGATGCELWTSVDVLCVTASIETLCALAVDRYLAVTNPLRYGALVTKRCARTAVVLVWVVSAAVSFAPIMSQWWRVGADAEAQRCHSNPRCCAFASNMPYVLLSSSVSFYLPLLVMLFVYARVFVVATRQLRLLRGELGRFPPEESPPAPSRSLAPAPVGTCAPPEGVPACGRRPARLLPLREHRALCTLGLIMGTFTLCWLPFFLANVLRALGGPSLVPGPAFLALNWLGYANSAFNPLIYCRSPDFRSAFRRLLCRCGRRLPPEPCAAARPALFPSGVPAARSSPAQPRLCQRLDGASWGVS

[18] = target: Sodium-dependent noradrenaline transporter (Homo sapiens) (UniProt P23975); details: Compound concentration 10.0 uM
[19] = target: Sodium-dependent dopamine transporter (Homo sapiens) (UniProt Q01959); details: Compound concentration 10.0 uM
[20] = target: Type-2 angiotensin II receptor (Homo sapiens) (UniProt P50052); details: Compound concentration 10.0 uM
[21] = target: Alpha-1B adrenergic receptor (Homo sapiens) (UniProt P35368); details: Compound concentration 10.0 uM
Sequence of Alpha-1B adrenergic receptor (Homo sapiens) (P35368 whole entry): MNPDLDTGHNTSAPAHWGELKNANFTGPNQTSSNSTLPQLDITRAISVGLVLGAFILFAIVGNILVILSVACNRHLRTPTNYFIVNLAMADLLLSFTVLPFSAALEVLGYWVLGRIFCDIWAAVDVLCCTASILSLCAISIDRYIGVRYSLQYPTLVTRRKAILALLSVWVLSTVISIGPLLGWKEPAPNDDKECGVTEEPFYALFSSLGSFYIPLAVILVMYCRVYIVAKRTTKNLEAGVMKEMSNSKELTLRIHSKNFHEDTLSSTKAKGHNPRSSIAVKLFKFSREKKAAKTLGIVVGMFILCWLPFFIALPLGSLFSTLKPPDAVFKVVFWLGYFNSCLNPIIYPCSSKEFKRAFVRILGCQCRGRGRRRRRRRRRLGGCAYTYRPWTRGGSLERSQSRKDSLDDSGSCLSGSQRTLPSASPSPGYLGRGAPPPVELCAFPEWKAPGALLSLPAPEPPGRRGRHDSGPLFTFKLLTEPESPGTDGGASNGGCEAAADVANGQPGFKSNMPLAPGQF

[22] = target: Glutamate receptor ionotropic, kainate (Rattus norvegicus) (UniProt P22756+Q01812+P42260+P42264+Q63273); details: Compound concentration 10.0 uM
[23] = target: B1 bradykinin receptor (Homo sapiens) (UniProt P46663); details: Compound concentration 10.0 uM
[24] = target: Kappa-type opioid receptor (Homo sapiens) (UniProt P41145); details: Compound concentration 10.0 uM; remark: listed apart in the source
[25] = target: Alpha-1D adrenergic receptor (Homo sapiens) (UniProt P25100); details: Compound concentration 10.0 uM
Sequence of Alpha-1D adrenergic receptor (Homo sapiens) (P25100 whole entry): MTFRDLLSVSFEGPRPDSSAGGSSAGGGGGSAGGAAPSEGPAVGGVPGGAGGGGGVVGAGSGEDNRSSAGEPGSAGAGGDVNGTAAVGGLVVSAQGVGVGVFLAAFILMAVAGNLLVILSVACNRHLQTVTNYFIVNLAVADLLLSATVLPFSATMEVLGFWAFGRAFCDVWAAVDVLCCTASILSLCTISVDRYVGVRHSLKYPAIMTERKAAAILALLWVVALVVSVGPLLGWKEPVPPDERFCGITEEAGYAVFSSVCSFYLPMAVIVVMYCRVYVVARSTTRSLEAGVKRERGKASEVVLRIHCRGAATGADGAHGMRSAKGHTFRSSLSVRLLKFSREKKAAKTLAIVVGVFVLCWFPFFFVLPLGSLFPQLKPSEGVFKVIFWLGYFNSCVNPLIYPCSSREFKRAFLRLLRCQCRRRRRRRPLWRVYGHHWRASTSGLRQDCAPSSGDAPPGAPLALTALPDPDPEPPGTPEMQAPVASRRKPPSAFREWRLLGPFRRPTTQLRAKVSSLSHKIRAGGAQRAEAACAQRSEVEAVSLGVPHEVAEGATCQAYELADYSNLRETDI

Homo sapiens = organism: Homo sapiens; experiment: Inhibition of Nicotinic Acetylcholine at compound concentration of 10.0 uM in the Eurofins-Panlabs radioligand binding assay (Eurofins_assay_258590); type: protein-complex assay; details: Compound concentration 10.0 uM
[26] = target: Glutamate receptor 2 (Homo sapiens) (UniProt P42262); details: Rattus norvegicus; Compound concentration 10.0 uM
[27] = target: Polyunsaturated fatty acid lipoxygenase ALOX15 (Homo sapiens) (UniProt P16050); experiment: Inhibition of Lipoxygenase 15-LO at compound concentration of 10.0 uM in the Eurofins-Panlabs enzyme assay (Eurofins_assay_199017); details: Compound concentration 10.0 uM
Rattus norvegicus = organism: Rattus norvegicus; details: Compound concentration 10.0 uM
[28] = target: Histamine H3 receptor (Homo sapiens) (UniProt Q9Y5N1); details: Compound concentration 10.0 uM
Sequence of Histamine H3 receptor (Homo sapiens) (Q9Y5N1 whole entry): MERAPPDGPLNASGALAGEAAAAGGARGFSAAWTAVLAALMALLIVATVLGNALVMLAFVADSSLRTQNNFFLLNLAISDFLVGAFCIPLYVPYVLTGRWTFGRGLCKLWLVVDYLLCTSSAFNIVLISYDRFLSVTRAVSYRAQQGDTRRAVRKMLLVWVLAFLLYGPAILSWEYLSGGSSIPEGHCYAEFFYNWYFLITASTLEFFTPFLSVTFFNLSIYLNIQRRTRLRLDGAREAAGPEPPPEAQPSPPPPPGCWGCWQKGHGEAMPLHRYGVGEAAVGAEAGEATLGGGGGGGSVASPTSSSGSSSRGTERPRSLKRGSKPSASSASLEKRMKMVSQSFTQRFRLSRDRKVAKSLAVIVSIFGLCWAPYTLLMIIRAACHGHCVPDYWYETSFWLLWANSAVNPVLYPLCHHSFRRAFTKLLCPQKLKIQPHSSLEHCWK

[29] = target: Alpha-2B adrenergic receptor (Homo sapiens) (UniProt P18089); details: filed as antagonist, Compound concentration 10.0 uM
Sequence of Alpha-2B adrenergic receptor (Homo sapiens) (P18089 whole entry): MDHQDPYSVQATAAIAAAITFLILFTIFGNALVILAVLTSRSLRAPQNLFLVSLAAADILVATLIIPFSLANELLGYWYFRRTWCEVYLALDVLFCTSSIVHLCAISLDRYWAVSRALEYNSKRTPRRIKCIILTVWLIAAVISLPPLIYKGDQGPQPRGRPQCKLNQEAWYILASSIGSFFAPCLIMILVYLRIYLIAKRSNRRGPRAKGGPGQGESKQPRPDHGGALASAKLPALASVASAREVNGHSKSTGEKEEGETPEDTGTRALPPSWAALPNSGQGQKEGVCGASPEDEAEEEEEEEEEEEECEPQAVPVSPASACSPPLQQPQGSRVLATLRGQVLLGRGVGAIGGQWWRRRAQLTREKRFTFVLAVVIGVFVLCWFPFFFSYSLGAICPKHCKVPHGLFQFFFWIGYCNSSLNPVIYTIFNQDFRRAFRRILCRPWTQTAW

Row | Compound | inhibition [1] [%] | inhibition [5] [%] | inhibition [6] [%] | inhibition [9] [%] | inhibition (D(2) dopamine receptor) [%] | inhibition [15] [%] | inhibition [17] [%] | inhibition [21] [%] | inhibition [24] [%] | inhibition [25] [%] | inhibition [28] [%] | also measured
1 | CNc1cc[n+](CCNC(=O)c2ccn3c(-c4c(C)noc4C)cnc3c2)cc1 | 20.9 | -2.83 | -3.48 | -5 | 10.6 | 11.3 | 1.07 | 0.79 | 32.3 | 1.62 | 9.04 | inhibition [2]: -2.3%; inhibition [3]: 1.3%; inhibition [4]: 0%; inhibition [7]: 25.3%; inhibition [8]: 1.2%; inhibition [10]: -4.1%; inhibition [11]: -2.2%; inhibition [12]: -3.4%; inhibition [13]: 0.5%; inhibition [14]: 0.4%; inhibition [16]: -2.7%; inhibition [18]: 2.7%; inhibition [19]: 20.3%; inhibition [20]: 4.1%; inhibition [22]: 0.2%; inhibition [23]: -0.9%; inhibition (Homo sapiens): 9.4%; inhibition [26]: -1.1%; inhibition [27]: -0.5%; inhibition (Rattus norvegicus): 0.4%
2 | Cc1noc(C)c1-c1cnc2cc(C(=O)NCCC[n+]3ccc(N(C)C)cc3)ccn12 | -7.67 | -2.67 | -5.48 | -1.12 | -1.11 | 3.03 | -3.02 | 1.7 | 28.2 | 0.59 | 36 | inhibition [29]: 54.6%
